Key:
Assay type in all cases: in vivo
[1] = test system: sedge, umbrella (small-flower umbrella sedge, Cyperus difformis); assay: Test B flooded paddy test; settings: 250 g ai/ha, Flood; 0 to 100 scale where 0 is no effect and 100 is complete control
In short: (§1)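 Evaluation by eye, against controls, occurred 13–15 d post-treatment in a greenhouse, using a 0 (no effect) to 100 (complete control) scale. Application was into the paddy water, 3 cm deep over the soil, on 2-leaf plants.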

[2] = test system: barnyardgrass (Echinochloa crus-galli); assay: Test B flooded paddy test; settings: 250 g ai/ha, Flood; 0 to 100 scale where 0 is no effect and 100 is complete control
In short: as §1

[3] = test system: ducksalad (Heteranthera limosa); assay: Test B flooded paddy test; settings: 250 g ai/ha, Flood; 0 to 100 scale where 0 is no effect and 100 is complete control
In short: as §1

rice (Oryra sativa) = assay: Test B flooded paddy test; settings: 250 g ai/ha, Flood; 0 to 100 scale where 0 is no effect and 100 is complete control
In short: as §1

[4] = test system: wheat (Triticum aestivum); assay: Test A postemergence; settings: for Wheat plant response rating (0 to 100 scale): 125 g ai/ha, postemergence, visual injury vs untreated controls after approx. 10 d, 0 = no effect, 100 = complete control
In short: (§2)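 Preemergence directed soil spray on seeded pots, or postemergence application to plants 2–10 cm, one- to two-leaf. Solvent mixture non-phytotoxic, with surfactant. Scored ~10 d later, visually, 0–100 vs untreated.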

[5] = test system: blackgrass (Alopecurus myosuroides); assay: Test A postemergence; settings: for Blackgrass plant response rating (0 to 100 scale): 125 g ai/ha, visual injury vs untreated controls after approx. 10 d, 0 = no effect, 100 = complete control
In short: as §2

[6] = test system: Galium (catchweed bedstraw, Galium aparine); assay: Test A postemergence; settings: for Galium plant response rating (0 to 100 scale): 125 g ai/ha, visual injury vs untreated controls after approx. 10 d, 0 = no effect, 100 = complete control
In short: as §2

[7] = test system: barnyardgrass (Echinochloa crus-galli); assay: Test A postemergence; settings: for Barnyardgrass plant response rating (0 to 100 scale): 125 g ai/ha, visual injury vs untreated controls after approx. 10 d, 0 = no effect, 100 = complete control
In short: as §2

[8] = test system: pigweed (Amaranthus retroflexus); assay: Test A postemergence; settings: for Pigweed plant response rating (0 to 100 scale): 125 g ai/ha, visual injury vs untreated controls after approx. 10 d, 0 = no effect, 100 = complete control
In short: as §2

corn (Zea mays) = assay: Test A postemergence; settings: for Corn plant response rating (0 to 100 scale): 125 g ai/ha, visual injury vs untreated controls after approx. 10 d, 0 = no effect, 100 = complete control
In short: as §2

[9] = test system: ragweed (common ragweed, Ambrosia elatior); assay: Test A postemergence; settings: for Ragweed plant response rating (0 to 100 scale): 125 g ai/ha, visual injury vs untreated controls after approx. 10 d, 0 = no effect, 100 = complete control
In short: as §2

[10] = test system: ryegrass, Italian (Italian ryegrass, Lolium multiflorum); assay: Test A postemergence; settings: for Ryegrass, Italian plant response rating (0 to 100 scale): 125 g ai/ha, visual injury vs untreated controls after approx. 10 d, 0 = no effect, 100 = complete control
In short: as §2

[11] = test system: giant foxtail (Setaria faberii); assay: Test A postemergence; settings: for Foxtail, Giant plant response rating (0 to 100 scale): 125 g ai/ha, visual injury vs untreated controls after approx. 10 d, 0 = no effect, 100 = complete control
In short: as §2

Kochia (Kochia scoparia) [12] = assay: Test A postemergence; settings: for Kochia plant response rating (0 to 100 scale): 125 g ai/ha, visual injury vs untreated controls after approx. 10 d, 0 = no effect, 100 = complete control
In short: as §2

[13] = test system: barnyardgrass (Echinochloa crus-galli); assay: Test A preemergence; settings: 0 to 100 scale where 0 is no effect and 100 is complete control
In short: as §2

[14] = test system: pigweed (Amaranthus retroflexus); assay: Test A preemergence; settings: 0 to 100 scale where 0 is no effect and 100 is complete control
[15] = test system: ragweed (common ragweed, Ambrosia elatior); assay: Test A preemergence; settings: 0 to 100 scale where 0 is no effect and 100 is complete control
In short: as §2

[16] = test system: ryegrass, Italian (Italian ryegrass, Lolium multiflorum); assay: Test A preemergence; settings: 0 to 100 scale where 0 is no effect and 100 is complete control
In short: as §2

[17] = test system: giant foxtail (Setaria faberii); assay: Test A preemergence; settings: 0 to 100 scale where 0 is no effect and 100 is complete control
In short: as §2

Kochia (Kochia scoparia) [18] = assay: Test A preemergence; settings: 0 to 100 scale where 0 is no effect and 100 is complete control
In short: as §2

[19] = Postemergence, 31 g ai/ha, visual injury after approx. 10 d, 0 to 100 scale, 0 no effect, 100 complete control
[20] = 125 g ai/ha, preemergence, approx. 10 d
[21] = 500 g ai/ha, postemergence, 0 to 100 scale, 0 is no effect, 100 is complete control
[22] = 125 g ai/ha, preemergence, visual injury rating, approximately 10 d

Structure (SMILES): CN1C[C@@H](c2ccc([N+](=O)[O-])cc2)[C@H](C(=O)Nc2cccc(F)c2F)C1=O [Compound 1165]
- Sedge, Umbrella plant response rating [1]: 0
- Barnyardgrass plant response rating [2]: 95
- Ducksalad plant response rating [3]: 90
- Rice plant response rating (rice (Oryra sativa)): 45
- Wheat plant response rating (0 to 100 scale) [4]: 30
- Plant response rating, Wheat [4, 19]: 0
- Blackgrass plant response rating (0 to 100 scale) ([5]; postemergence): 0
- Plant response rating, Blackgrass [5, 19]: 0
- Galium plant response rating (0 to 100 scale) ([6]; postemergence): 60
- Plant response rating, Galium [6, 19]: 20
- Barnyardgrass plant response rating (0 to 100 scale) ([7]; postemergence): 80
- Plant response rating, Barnyardgrass [7, 19]: 40
- Pigweed plant response rating (0 to 100 scale) ([8]; postemergence): 30
- Plant response rating, Pigweed [8, 19]: 10
- Corn plant response rating (0 to 100 scale) (corn (Zea mays); postemergence): 30
- Plant response rating, Corn (corn (Zea mays); [19]): 0
- Ragweed plant response rating (0 to 100 scale) ([9]; postemergence): 0
- Plant response rating, Ragweed [9, 19]: 0
- Ryegrass, Italian plant response rating (0 to 100 scale) ([10]; postemergence): 20
- Plant response rating, Ryegrass, Italian [10, 19]: 0
- Foxtail, Giant plant response rating (0 to 100 scale) ([11]; postemergence): 70
- Plant response rating, Foxtail, Giant [11, 19]: 70
- Kochia plant response rating (0 to 100 scale) (Kochia (Kochia scoparia) [12]; postemergence): 30
- Plant response rating, Kochia (Kochia (Kochia scoparia) [12]; [19]): 30
- Barnyardgrass plant response rating ([13]; 31 g ai/ha, Preemergence): 70
- Barnyardgrass plant response rating [13, 20]: 90
- Pigweed plant response rating ([14]; 31 g ai/ha, Preemergence): 40
- Pigweed plant response rating [14, 20]: 50
- Ragweed plant response rating ([15]; 31 g ai/ha, Preemergence): 0
- Ragweed plant response rating [15, 20]: 30
- Ryegrass, Italian plant response rating ([16]; 31 g ai/ha, Preemergence): 0
- Ryegrass, Italian plant response rating [16, 20]: 0
- Foxtail, Giant plant response rating ([17]; 31 g ai/ha, Preemergence): 70
- Foxtail, Giant plant response rating [17, 20]: 90
- Kochia plant response rating (Kochia (Kochia scoparia) [18]; 31 g ai/ha, Preemergence): 0
- Kochia plant response rating (Kochia (Kochia scoparia) [18]; [20]): 70

Structure (SMILES): O=C1NCC(c2cccc(C(F)(F)F)c2)C1C(=O)Nc1ccccc1O (centres unmarked) [Compound 1241]
- Sedge, Umbrella plant response rating [1]: 0
- Barnyardgrass plant response rating [2]: 0
- Ducksalad plant response rating [3]: 0
- Rice plant response rating (rice (Oryra sativa)): 0
- Wheat plant response rating (0 to 100 scale) [4]: 0
- Blackgrass plant response rating (0 to 100 scale) ([5]; postemergence): 0
- Blackgrass plant response rating [5, 21]: 0
- Galium plant response rating (0 to 100 scale) ([6]; postemergence): 0
- Galium plant response rating [6, 21]: 0
- Barnyardgrass plant response rating (0 to 100 scale) ([7]; postemergence): 0
- Barnyardgrass plant response rating [7, 21]: 30
- Pigweed plant response rating (0 to 100 scale) ([8]; postemergence): 0
- Pigweed plant response rating [8, 21]: 0
- Corn plant response rating (0 to 100 scale) (corn (Zea mays); postemergence): 0
- Corn plant response rating (corn (Zea mays); [21]): 20
- Ragweed plant response rating (0 to 100 scale) ([9]; postemergence): 0
- Ragweed plant response rating [9, 21]: 0
- Ryegrass, Italian plant response rating (0 to 100 scale) ([10]; postemergence): 0
- Ryegrass, Italian plant response rating [10, 21]: 0
- Foxtail, Giant plant response rating (0 to 100 scale) ([11]; postemergence): 0
- Foxtail, Giant plant response rating [11, 21]: 20
- Kochia plant response rating (0 to 100 scale) (Kochia (Kochia scoparia) [12]; postemergence): 0
- Kochia plant response rating (Kochia (Kochia scoparia) [12]; [21]): 0
- Barnyardgrass plant response rating [13, 22]: 0
- Barnyardgrass plant response rating ([13]; 500 g ai/ha, preemergence): 0
- Pigweed plant response rating [14, 22]: 0
- Pigweed plant response rating ([14]; 500 g ai/ha, preemergence): 0
- Ragweed plant response rating [15, 22]: 0
- Ragweed plant response rating ([15]; 500 g ai/ha, preemergence): 0
- Ryegrass, Italian plant response rating [16, 22]: 0
- Ryegrass, Italian plant response rating ([16]; 500 g ai/ha, preemergence): 0
- Foxtail, Giant plant response rating [17, 22]: 0
- Foxtail, Giant plant response rating ([17]; 500 g ai/ha, preemergence): 0
- Kochia plant response rating (Kochia (Kochia scoparia) [18]; [22]): 0
- Kochia plant response rating (Kochia (Kochia scoparia) [18]; 500 g ai/ha, preemergence): 0

From patent US12077503B2, “Substituted cyclic amides and their use as herbicides” (FMC CORPORATION, priority 2015, dated 2024)
